The results in this text go back to ChEMBL document CHEMBL3045076, “Influence on Insecticidal Activity of the 3-(3,4-Methylenedioxyphenyl) Group in the 1,4-Benzodioxanyl Moiety of Haedoxan” (1992).

Activity calls are given as the source filed them. No cut-off for these calls is given here.

The test system of test [1] is Musca domestica. The test is described as follows: Insecticidal activity against Musca domestica (house fly) assessed as mortality measured per fly. The test is classed as functional.
The test system of test [2] is Musca domestica. The test is described as follows: Insecticidal activity against Musca domestica (house fly) assessed as increase in mortality. The test is classed as functional, organism-based.

As for `COC[C@H]1Oc2cc([C@H]3OC[C@]4(O)[C@@H](Oc5c(OC)cccc5OC)OC[C@H]34)c(OC)cc2O[C@@H]1C` (mixture of isomers), in the test on Musca domestica [1], the LD50 was 1 µg.

For `CCCC[C@H]1Oc2cc(OC)c([C@H]3OC[C@]4(O)[C@@H](Oc5c(OC)cccc5OC)OC[C@H]34)cc2O[C@@H]1COC` (mixture of isomers), the LD50 with Musca domestica [1] is 1 µg.

Consider `COC[C@H]1Oc2cc([C@H]3OC[C@]4(O)[C@@H](Oc5c(OC)cc6c(c5OC)OCO6)OC[C@H]34)c(OC)cc2O[C@@H]1c1ccc2c(c1)OCO2` [(+)-HAEDOXAN A], for which the LD50 in the test on Musca domestica [1] stood at 0.00025 µg.

On to `COC[C@H]1Oc2cc([C@H]3OC[C@]4(O)[C@@H](Oc5c(OC)cccc5OC)OC[C@H]34)c(OC)cc2O[C@H]1C` (mixture of isomers), for which the result with Musca domestica [2] was inactive.
